This experiment concerns AMPA receptors. Nature of the experiment: Excitatory fluxes induced by AMPA in Xenopus oocytes (2-electrode voltage-clamp). The format is cell-based. Particulars: Xenopus oocytes injected with rat cerebral cortex poly-(A+) mRNA, AMPA 10 μM, 20 to 24° C., OR2 medium. As for the experimental part:
Study of the Excitatory Fluxes Induced By AMPA in Xenopus oocytes
mRNAs are prepared from cerebral cortex of male Wistar rat by the guanidinium thiocyanate/phenol/chloroform method. The poly-(A^+) mRNAs are isolated by chromatography on oligo-dT cellulose and injected in an amount of 50 ng per oocyte. The oocytes are left to incubate for 2 to 3 days at 18° C. to allow expression of the receptors and are then stored at from 8 to 10° C.
Electrophysiological recording is carried out in a Plexiglass® chamber at from 20 to 24° C. in OR2 medium (J. Exp. Zool., 1973, 184, 321-334) by the 2-electrode “voltage-clamp” method, a 3rd electrode being placed in the bath to serve as reference.
All the compounds are administered via the incubation medium and the electric current is measured at the end of the period of administration. AMPA is used at a concentration of 10 μM. For each compound studied, the concentration that doubles (EC2X) or quintuples (EC5X) the intensity of the current induced by AMPA alone (5 to 50 nA) is determined.

Drawing on US20050014744A1, “Benzothiazine and benzothiadiazine compounds” (priority 2001, published 2005), this text covers Concentration that doubles (EC2X) or quintuples (EC5X) the AMPA-induced current for 1 compound.

Where two headings read alike, the source gives them in different places.

For `O=C(Oc1ccc2c(c1)S(=O)(=O)NCC2)c1ccccc1` [Example 2, 1,1-Dioxido-3,4-dihydro-2H-1,2-benzothiazin-7-yl Benzoate], the Concentration that doubles (EC2X) or quintuples (EC5X) the AMPA-induced current by setting is: (read-out: EC2X (concentration that doubles the intensity of the current induced by AMPA alone)) 11.9 µM; (read-out: EC5X (concentration that quintuples the intensity of the current induced by AMPA alone)) 49.3 µM.
